Assay results from BindingDB's records for patent US11826435 (University of Saskatchewan, 2023).

Target: T1, Lysosomal acid glucosylceramidase (Homo sapiens, UniProt P04062)
T1 sequence (P04062 whole entry): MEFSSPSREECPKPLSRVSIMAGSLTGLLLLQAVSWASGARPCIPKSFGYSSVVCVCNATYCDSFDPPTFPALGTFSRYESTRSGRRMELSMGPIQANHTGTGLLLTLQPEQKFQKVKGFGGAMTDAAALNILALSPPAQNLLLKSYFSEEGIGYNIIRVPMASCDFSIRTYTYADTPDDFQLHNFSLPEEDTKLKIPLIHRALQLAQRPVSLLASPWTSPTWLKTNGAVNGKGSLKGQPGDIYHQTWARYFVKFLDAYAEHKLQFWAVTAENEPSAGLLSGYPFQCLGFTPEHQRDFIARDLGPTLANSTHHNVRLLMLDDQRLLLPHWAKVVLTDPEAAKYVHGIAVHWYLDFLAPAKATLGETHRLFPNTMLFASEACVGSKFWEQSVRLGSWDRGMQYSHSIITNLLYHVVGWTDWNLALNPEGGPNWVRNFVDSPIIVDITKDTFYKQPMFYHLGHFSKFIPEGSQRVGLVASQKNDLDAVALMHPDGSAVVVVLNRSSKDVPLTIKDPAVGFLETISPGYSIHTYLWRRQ
Assay: Enzyme Kinetics - Measuring Inactivation Rates of Inhibitors
Procedure: Inactivation solutions contained a final concentration of 16.55 nM of Cerezyme (Recombinant GCase) in 200 μL of Reaction Buffer (50 mM acetate, 0.2% v/v Triton X-100, 0.3% w/v sodium taurocholate, pH 5.5). The Cerezyme was collected from leftover patient vials and had approximately 8275 nM in the vial. […] Once the inhibitor was added this was considered time=0 minutes. Meanwhile a 96 well plate inside a Biotek Synergy 4 hybrid multi-mode reader at 37 C. was being incubated. In the wells of the plate were waiting a high concentration ([…]) of 2,4-DNP-β-Glc substrate in 180 μL of Reaction Buffer. As the inhibitor inactivation was occurring, 20 μL aliquots were taken from the inactivation solutions and diluted on the plate containing the substrate bringing the final concentration of the substrate to […]. Once all the aliquots were added the solution in the wells was measured for absorbance at 400 nm for 8 minutes. At this time the measurements were paused and the next set of aliquots were taken to see how residual enzyme activity changes over time.

Which Ki does the source give for O[C@H]1[C@H](O)[C@@H](O)[C@@H]2O[C@@H]2[C@@H]1O [US11826435, Compound 1.2] here?
The Ki was 140 µM.

With O=[N+]([O-])c1ccc(OC2O[C@H](CO)[C@@H](O)[C@H](O)[C@H]2F)c([N+](=O)[O-])c1 (some centres not stated) [US11826435, Compound 1.1] as the compound, how does the IC50 read?
Its IC50 is greater than 1000 µM.
